In patent US20130150377A1, “Tetrahydropyridinyl and Dihydropyrrolyl Compounds and the Use Thereof” (SHIONOGI & CO., LTD., priority 2008, published 2013):

Molecular target: T1, N-type calcium channel (NTCC) (Homo sapiens, UniProt Q00975)
T1 construct: endogenous in cells; host or cells: differentiated IMR32 cells (ATCC)
Test: FLIPR calcium mobilization assay for N-type calcium channel (differentiated IMR32 cells)
Format: cell-based
Settings: N-type calcium channel blockers, calcium mobilization in vitro assay
Experimental: Cell maintenance and differentiation. Unless noted otherwise, cell culture reagents were purchased from Mediatech of Herndon, Md. IMR32 cells (American Type Culture Collection, ATCC, Manassas, Va.) were routinely cultured in growth medium consisting of minimum essential medium containing 10% fetal bovine serum (FBS, Hyclone, Logan, Utah), 100 U/mL penicillin, 100 μg/mL streptomycin, 2 mM L-glutamine, 1 mM sodium pyruvate, and 1×MEM non-essential amino acids. 80-90% confluent flasks of cells were differentiated using the following differentiation medium: Growth medium plus 1 mM dibutyryl cyclic AMP (Sigma, St. Louis, Mo.), and 2.5 μM bromodeoxyuridine (Sigma). Cells were differentiated for 8 days by replacing differentiation medium every 2-3 days.
FLIPR Calcium Mobilization Assay for N-type Calcium Channel.
One day prior to performing this assay, differentiated IMR32 cells were treated with 1× CellStripper, and seeded on poly-D-lysine-coated 96-well clear-bottom black plates (Becton Dickinson, Franklin Lakes, N.J.) at 200,000 cells/well. On the day of the assay, the cell plates were washed with IMR32 buffer (127 mM NaCl, 1 mM KCl, 2 mM MgCl2, 700 μM NaH2PO4, 5 mM CaCl2, 5 mM NaHCO3, 8 mM HEPES, 10 mM glucose, pH 7.4), then pre-stimulated with KCl and loaded as follows: […] of IMR32 buffer, 0.05 mL of each compound tested diluted in IMR32 buffer containing 20 μM nitrendipine (Sigma), and 0.1 mL KCl dissolved in IMR32 buffer, plus Fluo-4 were added (3 μM final concentration, Molecular Probes, Eugene, Oreg.). Final test compound concentrations ranged from about 846 pM to about 17 μM, final nitrendipine concentration was 5 μM, and final KCl concentration was 90 mM. After 1 hour, the cells were washed twice with 0.05 mL of each compound tested in nitrendipine-containing IMR32 buffer (no KCl or Fluo-4), and then replaced with 0.1 mL of each compound tested in nitrendipine-containing IMR32 buffer. Plates were then transferred to a Fluorimetric Imaging Plate Reader (FLIPR^96, Molecular Devices, Inc., Sunnyvale, Calif.) for assay. The FLIPR measured basal Fluo-4 fluorescence for 315 seconds (i.e., 5 minutes and 15 seconds), then added 0.1 mL KCl agonist dissolved in IMR32 buffer and measured fluorescence for another 45 seconds. Final test compound concentrations on the cells after FLIPR read ranged from about 846 pM to about 17 μM, final nitrendipine concentration was 5 μM, and final KCl concentration was 90 mM. Data were collected over the entire time course and analyzed using Excel, Graph Pad Prism (version 3.02, Graph Pad, San Diego, Calif.), or an in-house non-linear regression analysis software.

T1 sequence (Q00975 whole entry): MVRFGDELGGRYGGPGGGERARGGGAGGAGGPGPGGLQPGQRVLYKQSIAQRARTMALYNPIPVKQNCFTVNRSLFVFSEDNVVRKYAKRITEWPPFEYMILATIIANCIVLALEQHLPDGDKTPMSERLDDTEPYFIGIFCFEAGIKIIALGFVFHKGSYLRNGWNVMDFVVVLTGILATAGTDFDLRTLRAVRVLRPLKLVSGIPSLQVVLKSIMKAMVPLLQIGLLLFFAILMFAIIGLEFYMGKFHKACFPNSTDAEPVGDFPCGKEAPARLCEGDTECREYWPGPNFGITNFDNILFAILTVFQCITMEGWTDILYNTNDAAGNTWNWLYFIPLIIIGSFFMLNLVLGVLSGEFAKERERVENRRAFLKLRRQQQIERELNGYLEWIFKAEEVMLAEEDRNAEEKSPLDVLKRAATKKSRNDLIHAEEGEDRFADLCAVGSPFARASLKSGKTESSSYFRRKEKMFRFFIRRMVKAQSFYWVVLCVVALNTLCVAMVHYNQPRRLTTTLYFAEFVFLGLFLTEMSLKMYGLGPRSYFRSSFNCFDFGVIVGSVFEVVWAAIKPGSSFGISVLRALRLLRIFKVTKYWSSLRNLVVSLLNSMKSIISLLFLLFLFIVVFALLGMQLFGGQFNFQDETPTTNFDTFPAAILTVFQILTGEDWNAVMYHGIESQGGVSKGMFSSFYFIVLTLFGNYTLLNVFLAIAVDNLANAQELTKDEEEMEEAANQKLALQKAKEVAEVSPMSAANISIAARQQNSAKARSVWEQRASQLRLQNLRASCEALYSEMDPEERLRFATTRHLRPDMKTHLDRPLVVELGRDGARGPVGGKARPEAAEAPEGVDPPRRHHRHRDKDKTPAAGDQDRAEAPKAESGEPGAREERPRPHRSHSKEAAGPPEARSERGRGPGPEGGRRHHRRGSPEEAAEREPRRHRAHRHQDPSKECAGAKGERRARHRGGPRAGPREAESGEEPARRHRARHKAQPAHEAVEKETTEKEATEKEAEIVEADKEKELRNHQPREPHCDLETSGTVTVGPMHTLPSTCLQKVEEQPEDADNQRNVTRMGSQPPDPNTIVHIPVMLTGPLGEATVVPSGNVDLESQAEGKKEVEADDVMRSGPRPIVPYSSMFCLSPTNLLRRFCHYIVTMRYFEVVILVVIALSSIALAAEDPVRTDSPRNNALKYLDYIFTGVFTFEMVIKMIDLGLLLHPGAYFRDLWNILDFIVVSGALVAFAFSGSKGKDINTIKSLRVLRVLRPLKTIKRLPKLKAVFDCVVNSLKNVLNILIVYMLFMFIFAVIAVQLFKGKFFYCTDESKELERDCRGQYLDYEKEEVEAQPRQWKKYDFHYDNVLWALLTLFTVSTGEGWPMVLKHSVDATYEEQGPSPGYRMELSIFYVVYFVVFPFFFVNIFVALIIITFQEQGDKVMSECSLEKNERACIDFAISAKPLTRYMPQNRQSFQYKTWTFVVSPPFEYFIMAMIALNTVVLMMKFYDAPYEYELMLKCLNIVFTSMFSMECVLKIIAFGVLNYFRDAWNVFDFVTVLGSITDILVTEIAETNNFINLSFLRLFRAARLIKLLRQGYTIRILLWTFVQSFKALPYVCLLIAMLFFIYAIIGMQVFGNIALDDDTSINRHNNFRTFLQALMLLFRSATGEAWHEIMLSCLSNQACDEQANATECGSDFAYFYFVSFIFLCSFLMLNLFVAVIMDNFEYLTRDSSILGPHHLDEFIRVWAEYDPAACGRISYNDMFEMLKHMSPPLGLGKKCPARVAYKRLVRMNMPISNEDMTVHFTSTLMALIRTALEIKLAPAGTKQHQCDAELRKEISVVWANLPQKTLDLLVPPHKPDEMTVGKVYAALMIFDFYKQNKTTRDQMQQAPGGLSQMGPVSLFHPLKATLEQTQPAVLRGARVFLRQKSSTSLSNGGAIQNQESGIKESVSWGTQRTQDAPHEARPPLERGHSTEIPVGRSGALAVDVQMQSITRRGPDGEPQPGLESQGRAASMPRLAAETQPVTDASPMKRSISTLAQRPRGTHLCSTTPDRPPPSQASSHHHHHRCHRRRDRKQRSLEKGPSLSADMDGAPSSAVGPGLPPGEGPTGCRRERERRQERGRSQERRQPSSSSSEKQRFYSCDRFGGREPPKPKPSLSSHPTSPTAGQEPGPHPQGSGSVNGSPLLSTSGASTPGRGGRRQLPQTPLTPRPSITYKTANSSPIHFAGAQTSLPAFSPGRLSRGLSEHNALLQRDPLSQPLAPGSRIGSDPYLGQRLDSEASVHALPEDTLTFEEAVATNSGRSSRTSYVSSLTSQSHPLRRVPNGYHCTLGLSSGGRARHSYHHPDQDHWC
T1 sequence (P54289 25-956 partner limits assumed): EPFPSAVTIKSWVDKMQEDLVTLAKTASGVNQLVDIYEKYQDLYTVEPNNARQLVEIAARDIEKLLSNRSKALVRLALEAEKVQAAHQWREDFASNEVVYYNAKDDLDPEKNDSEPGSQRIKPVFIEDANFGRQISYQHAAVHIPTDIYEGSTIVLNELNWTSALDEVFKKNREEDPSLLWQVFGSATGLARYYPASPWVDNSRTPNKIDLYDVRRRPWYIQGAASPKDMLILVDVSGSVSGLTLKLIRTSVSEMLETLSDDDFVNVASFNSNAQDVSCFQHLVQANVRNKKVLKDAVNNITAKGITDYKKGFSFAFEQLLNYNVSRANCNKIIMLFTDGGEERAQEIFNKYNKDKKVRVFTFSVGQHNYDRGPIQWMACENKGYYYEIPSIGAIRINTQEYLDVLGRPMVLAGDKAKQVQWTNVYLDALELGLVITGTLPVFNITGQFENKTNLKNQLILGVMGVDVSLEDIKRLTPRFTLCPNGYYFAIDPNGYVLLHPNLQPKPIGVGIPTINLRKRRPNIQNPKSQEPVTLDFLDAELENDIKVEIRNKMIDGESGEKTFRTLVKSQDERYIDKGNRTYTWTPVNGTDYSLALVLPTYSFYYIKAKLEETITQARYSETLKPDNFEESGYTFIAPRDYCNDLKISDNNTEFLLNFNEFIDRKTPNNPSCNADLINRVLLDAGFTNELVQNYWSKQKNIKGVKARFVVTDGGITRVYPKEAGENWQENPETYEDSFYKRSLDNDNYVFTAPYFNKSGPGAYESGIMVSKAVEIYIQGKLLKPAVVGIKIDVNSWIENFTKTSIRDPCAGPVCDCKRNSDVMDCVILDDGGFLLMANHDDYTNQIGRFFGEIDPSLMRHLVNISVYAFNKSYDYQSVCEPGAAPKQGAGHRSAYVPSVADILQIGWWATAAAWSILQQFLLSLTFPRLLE
T1 sequence (P54289 957-1103 partner limits assumed): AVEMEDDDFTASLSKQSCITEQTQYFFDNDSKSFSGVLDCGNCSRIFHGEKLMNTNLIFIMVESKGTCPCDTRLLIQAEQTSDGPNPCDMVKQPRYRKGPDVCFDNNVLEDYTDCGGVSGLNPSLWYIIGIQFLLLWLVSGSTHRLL
T1 sequence (P54284 whole entry partner): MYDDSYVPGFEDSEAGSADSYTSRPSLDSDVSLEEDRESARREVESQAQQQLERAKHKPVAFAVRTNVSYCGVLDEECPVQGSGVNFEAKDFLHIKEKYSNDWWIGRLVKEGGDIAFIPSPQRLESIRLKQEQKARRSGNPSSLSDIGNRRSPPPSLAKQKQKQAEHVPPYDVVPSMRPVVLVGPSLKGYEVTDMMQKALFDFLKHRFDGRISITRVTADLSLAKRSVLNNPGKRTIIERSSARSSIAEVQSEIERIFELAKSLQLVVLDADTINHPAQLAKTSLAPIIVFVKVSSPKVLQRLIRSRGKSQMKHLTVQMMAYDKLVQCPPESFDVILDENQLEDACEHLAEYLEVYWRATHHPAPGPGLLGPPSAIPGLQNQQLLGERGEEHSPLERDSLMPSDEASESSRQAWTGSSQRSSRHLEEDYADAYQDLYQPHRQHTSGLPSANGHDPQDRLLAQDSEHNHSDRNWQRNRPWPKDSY

Compound	IC50 [nM]
O=C(NC1CC1)c1cccc(C2=CCN(S(=O)(=O)Nc3cccc(C(F)(F)F)c3)CC2)n1 [Compound 86, 1′-[(3-Trifluoromethylbenzene)aminosulfonyl]-1′,2′,3′,6′-tetrahydro-[2,4′]bipyridinyl-6-carboxylic acid cyclopropylamide]	1050
NC(=O)c1cccc(C2=CCN(S(=O)(=O)c3cccc(C(F)(F)F)c3)CC2)n1 [Compound 28, 1′-(3-Trifluoromethylbenzenesulfonyl)-1′,2′,3′,6′-tetrahydro-[2,4′]bipyridinyl-6-carboxylic acid amide]	590
COC(=O)c1ncccc1C1=CCN(S(=O)(=O)c2cccc(C(F)(F)F)c2)CC1 [1′-(3-Trifluoromethylbenzenesulfonyl)-1′,2′,3′,6′-tetrahydro-[3,4′]bipyridinyl-2-carboxylic acid methyl ester]	> 20000
O=C(NC1CC1)c1cccc(C2=CCN(S(=O)(=O)c3ccc(OC(F)(F)F)cc3)CC2)n1 [1′-(4-Trifluoromethoxybenzenesulfonyl)-1′,2′,3′,6′-tetrahydro-[2,4′]bipyridinyl-6-carboxylic acid cyclopropylamide]	290
O=C(NCC1CC1)c1cccc(C2=CCN(S(=O)(=O)c3cccc(C(F)(F)F)c3)CC2)n1 [Compound 27, 1′-(3-Trifluoromethylbenzenesulfonyl)-1′,2′,3′,6′-tetrahydro-[2,4′]bipyridinyl-6-carboxylic acid cyclopropylmethylamide]	10
O=C(NC(CO)CO)c1cccc(C2=CCN(S(=O)(=O)c3cccc(C(F)(F)F)c3)CC2)n1 [1′-(3-Trifluoromethylbenzenesulfonyl)-1′,2′,3′,6′-tetrahydro-[2,4′]bipyridinyl-6-carboxylic acid 1,3-dihydroxyprop-2-ylamide]	90
O=C(NCC(F)(F)F)c1ncccc1C1=CCN(S(=O)(=O)c2cccc(C(F)(F)F)c2)CC1 [1′-(3-Trifluoromethylbenzenesulfonyl)-1′,2′,3′,6′-tetrahydro-[3,4′]bipyridinyl-2-carboxylic acid 2,2,2-trifluoroethylamide]	660
O=C(Nc1ccc(F)cc1)c1cccc(C2=CCN(S(=O)(=O)c3ccc(OC(F)(F)F)cc3)CC2)n1 [1′-(4-Trifluoromethoxybenzenesulfonyl)-1′,2′,3′,6′-tetrahydro-[2,4′]-bipyridinyl-6-carboxylic acid 4-fluorophenylamide]	1920
O=C(NC1CC1)c1cccc(C2=CC3CCC(C2)N3S(=O)(=O)c2cccc(C(F)(F)F)c2)n1 (centres unmarked) [Compound 55, 6-[8-(3-Trifluoromethylbenzenesulfonyl)-8-aza-bicyclo[3.2.1]oct-2-en-3-yl]pyridine-2-carboxylic acid cyclopropylamide]	50
O=C(NCCO)c1cccc(C2=CCN(S(=O)(=O)c3cccc(C(F)(F)F)c3)CC2)n1 [1′-(3-Trifluoromethylbenzenesulfonyl)-1′,2′,3′,6′-tetrahydro-[2,4′]bipyridinyl-6-carboxylic acid 2-hydroxyethylamide]	70
O=C(NC1CC1)c1cccc(C2=CCN(S(=O)(=O)c3cccnc3)CC2)n1 [1′-(Pyridin-3-ylsulfonyl)-1′,2′,3′,6′-tetrahydro-[2,4′]bipyridinyl-6-carboxylic acid cyclopropylamide]	6180
O=C(NC1CC1)c1cccc(C2=CCN(S(=O)(=O)c3ccc(Cl)cc3Cl)CC2)n1 [1′-(2,4-Dichlorobenzenesulfonyl)-1′,2′,3′,6′-tetrahydro-[2,4′]bipyridinyl-6-carboxylic acid cyclopropylamide]	190
O=C(NC1CC1)c1cccc(C2=CCN(S(=O)(=O)c3ccccc3C(F)(F)F)CC2)n1 [1′-(2-Trifluoromethylbenzenesulfonyl)-1′,2′,3′,6′-tetrahydro-[2,4′]bipyridinyl-6-carboxylic acid cyclopropylamide]	80
CN(C)S(=O)(=O)N1CC=C(c2cccc(C(=O)NC3CC3)n2)CC1 [1′-Dimethylsulfamoyl-1′,2′,3′,6′-tetrahydro-[2,4′]bipyridinyl-6-carboxylic acid cyclopropylamide]	> 20000
